Where “and” joins values, the source holds several entries; their conditions need not be identical. Identical values can stand only once. Entries after “also recorded” stand apart in the source; their conditions may differ. Like-named read-outs stand apart in the source and are kept apart here.
Tests used:
[1] = target: truncated Cereblon protein (Homo sapiens, UniProt Q96SW2); test: CRBN binding assay (fluorescence quenching); conditions: for Fluorescence Intensity: Supplementary Figure 11, replicates; for Kd: truncated Cereblon protein, fluorescence quenching, triplicates
Method: The Kd values of compounds to CRBN were measured based on fluorescence quenching after compounds binding to CRBN. […] All the compounds were dissolved in DMSO (10 mM) as stock solutions. The final drug concentration is 100 nM. […] Fluorescence intensity values for control wells (assay buffer only) were subtracted from each data point prior to analysis. The Kd was calculated using GraphPad Prism with the following equation curve fit. I=I0−If×Kd/P0+Kd+If

[2] = test system: MOLM-14 cells; test: Quantitative multiplexed (TMT) proteomics of compound-treated cells; assay type: cell-based, Homo sapiens; conditions: 200 nM, 24 h
Method: For proteomic study of the cellular protein profile following BTK degradation, MOLM-14 cells were treated in duplicate with 200 nM of RC-1, RNC-1, IRC-1, or RC-1-Me for 24 h, and then the cells were collected and processed for proteomics analysis (Sanford Burnham Prebys Medical Discovery Institute, La Jolla, California).
For cell lysis and protein digestion, cells were lysed with vigorous shaking (20 Hz for 10 min at room temperature by Retsch MM301 instrument) in 0.5 mL of lysis buffer (8 M urea, 50 mM ammonium bicarbonate (ABC); plus Benzonase 24U/100 ml), and extracted proteins were centrifuged at 14,000 × g for 10 min to remove cellular debris. Supernatant protein concentration was determined using a bicinchoninic acid (BCA) protein assay. Following quantification, the proteins were digested in solution. First, protein disulfide bonds were reduced with 5 mM tris(2-carboxyethyl)phosphine (TCEP) at 30 °C for 60 min, alkylated (carbamidomethylated) with 15 mM iodoacetamide (IAA) in the dark at room temperature for 30 min. Urea was then diluted to 1 M urea using 50 mM ammonium bicarbonate, and proteins were subjected to overnight digestion with mass spec grade Trypsin/Lys-C mix. Following digestion, samples were acidified with formic acid (FA) and subsequently desalted using Waters Sep-Pak C18. Cartridges were sequentially conditioned with 100% acetonitrile (ACN) and 0.1% FA, samples were then loaded, washed with 0.1% FA, and peptides eluted with 60% ACN, 0.1% FA. Finally, the organic solvent was removed in a SpeedVac concentrator prior to LC-MS/MS analysis.
Prior to TMT labeling, sample peptide amount was quantified using a NanoDrop^TM spectrophotometer (ThermoFisher). Samples were labeled according to the table schematic shown below using our TMT protocol. Briefly, a normalized amount of peptides sample was resuspended in 200 mM HEPES pH 8, and then labeled with one of the TMT10-plex reagents for 1 h at room temperature. TMT labels/channels were as follows:
Reactions were quenched with 5% hydroxylamine solution. The 10 samples were then combined, dried down in a SpeedVac system, resuspended in 0.1% FA, and desalted as described above. After desalting, the organic solvent was removed in a SpeedVac concentrator.
Dried samples were reconstituted in 20 mM ammonium formate pH ~10, and fractionated by high pH reverse phase using a Waters Acquity CSH C18 2.1-µm 1 × 150 mm column mounted on an M-Class Ultra Performance Liquid Chromatography (UPLC) system (Waters corp., Milford, MA). […] A total of 36 fractions were collected and pooled in a non-contiguous manner into 18 total fractions: 1 + 19, 2 + 20, 3 + 21, 4 + 22, 5 + 23, 6 + 24, 7 + 25, 8 + 26, 9 + 27, 10 + 28, 11 + 29, 12 + 30, 13 + 31, 14 + 32, 15 + 33, 16 + 34, 17 + 35, and 18 + 36. Pooled fractions were dried to completeness in a SpeedVac concentrator.
Dried fractions were reconstituted with 2% ACN-0.1% FA and analyzed by LC-MS/MS using a nanoACQUITY system (Waters) coupled to an Orbitrap Fusion Lumos mass spectrometer (Thermo Fisher Scientific). […] The mass spectrometer was operated in positive data-dependent acquisition mode. MS1 spectra were measured in the Orbitrap with a resolution of 60,000 (AGC target: 4e5; maximum injection time: 50 ms; mass range: from 350 to 1500 m/z). The instrument was set to run in top speed mode with 3 s cycles for the survey and the MS/MS scans. After a survey scan, tandem MS was performed in the Ion Routing Multipole HCD-Cell on the most abundant precursors by isolating them in the quadrupole (Isolation window: 0.7 m/z; charge state: +2–7; collision energy: 35%). […] The dynamic exclusion was set to 20 s with a 10-ppm mass tolerance around the precursor and its isotopes.
For data analysis, all mass spectra were analyzed with MaxQuant software version 1.5.5.1. MS/MS spectra were searched against the Homo sapiens Uniprot protein sequence database (version January 2018) and GPM cRAP sequences (commonly known protein contaminants). […]

[3] = target: T1, BTK-NanoLuc fusion (Homo sapiens, UniProt Q06187); test: NanoBRET BTK in-cell target engagement assay; assay type: cell-based; conditions: for K′P,D (relative intracellular accumulation coefficient): Kd (BTK)/IC50,TE (BTK); for intracellular accumulation of RC-1 relative to the compound: from K′P,D values, BTK (Table 1)
T1 construct: host or cells: HEK 293T/17
How it was run: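 Tracer-displacement IC50 derived from background-corrected BRET ratio (450 nm donor, 610 nm acceptor) in live HEK293/T17 cells transfected with BTK-NanoLuc. Cells were exposed for 2 h at 37 °C to 1.0 µM tracer plus 5-fold serial dilutions of compound from 10 µM.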

[4] = Figure 3c, 1.00E-05 M, triplicates
[5] = Figure 3c, 1.60E-08 M, triplicates
[6] = Figure 3c, 2.00E-06 M, triplicates
[7] = Figure 3c, 3.20E-09 M, triplicates
[8] = Figure 3c, 4.00E-07 M, triplicates
[9] = Figure 3c, 8.00E-08 M, triplicates
[10] = Figure 3d, 1.00E-05 M, triplicates
[11] = Figure 3d, 1.60E-08 M, triplicates
[12] = Figure 3d, 2.00E-06 M, triplicates
[13] = Figure 3d, 3.20E-09 M, triplicates
[14] = Figure 3d, 8.00E-08 M, triplicates
[15] = HEK-293 cells, BTK tracer 1.0 µM, Table 1 / Fig. 3c, triplicates, read-out: BTK TE IC50,TE
[16] = experiment of Fig. 3d, read-out: BTK target engagement IC50

T1 sequence (Q06187 whole entry, the tested form may be a part): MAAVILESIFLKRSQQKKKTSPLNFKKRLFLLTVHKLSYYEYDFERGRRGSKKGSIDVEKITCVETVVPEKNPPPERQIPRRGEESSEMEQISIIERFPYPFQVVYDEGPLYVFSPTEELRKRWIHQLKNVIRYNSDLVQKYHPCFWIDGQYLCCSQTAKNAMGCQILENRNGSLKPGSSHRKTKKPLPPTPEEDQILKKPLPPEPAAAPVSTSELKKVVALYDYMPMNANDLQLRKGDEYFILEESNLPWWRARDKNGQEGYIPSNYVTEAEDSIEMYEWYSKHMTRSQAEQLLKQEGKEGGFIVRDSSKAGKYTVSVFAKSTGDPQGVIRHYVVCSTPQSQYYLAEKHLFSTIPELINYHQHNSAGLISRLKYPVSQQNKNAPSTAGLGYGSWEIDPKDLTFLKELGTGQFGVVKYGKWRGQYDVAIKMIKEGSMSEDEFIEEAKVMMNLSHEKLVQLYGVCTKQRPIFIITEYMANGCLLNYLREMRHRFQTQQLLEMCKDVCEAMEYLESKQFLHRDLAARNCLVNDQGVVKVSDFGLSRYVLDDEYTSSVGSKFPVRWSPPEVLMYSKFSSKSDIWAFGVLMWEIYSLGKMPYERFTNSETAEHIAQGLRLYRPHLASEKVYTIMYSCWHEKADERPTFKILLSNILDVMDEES
Chain of truncated Cereblon protein (Q96SW2 318-426): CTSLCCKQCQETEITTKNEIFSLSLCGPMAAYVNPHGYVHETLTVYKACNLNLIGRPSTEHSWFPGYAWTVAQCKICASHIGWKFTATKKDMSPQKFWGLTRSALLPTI

Structure (SMILES)	Fluorescence Intensity ([1]; CRBN 0 μM)	Fluorescence Intensity ([1]; CRBN 0.734375 μM)	Fluorescence Intensity ([1]; CRBN 1.46875 μM)	Fluorescence Intensity ([1]; CRBN 2.9375 μM)	Fluorescence Intensity ([1]; CRBN 5.875 μM)	Fluorescence Intensity ([1]; CRBN 11.75 μM)	Fluorescence Intensity ([1]; CRBN 23.5 μM)	degradation of IMiD-dependent substrates IKZF1, ZFP91, ZNF692 [2]	kinases degraded (proteomics) [2]	NanoBRET(%) [3, 4]	NanoBRET(%) [3, 5]	NanoBRET(%) [3, 6]	NanoBRET(%) [3, 7]	NanoBRET(%) [3, 8]	NanoBRET(%) [3, 9]	NanoBRET(%) [3, 10]	NanoBRET(%) [3, 11]	NanoBRET(%) [3, 12]	IC50 [3, 15] [nM]	K′P,D (relative intracellular accumulation coefficient) [3]	further results
CN(CCCNC(=O)CNc1cccc2c1C(=O)N(C1CCC(=O)NC1=O)C2=O)C(C)(C)C=C(C#N)C(=O)N1CCC[C@@H](n2nc(-c3ccc(Oc4ccccc4)cc3)c3c(N)ncnc32)C1 (stereo partly drawn) [RC-1]	4127.8 and 4128.8 and 3844.8	3220.8 and 3187.8 and 3673.8	3204.8 and 3148.8 and 2908.8	2864.8 and 2662.8 and 2860.8	2528.8 and 2598.8 and 2686.8	1735.8 and 1776.8 and 2083.8	1563.8 and 1722.8 and 1455.8	specifically degraded	only two kinases (BTK and CSK) can be degraded; also recorded: only degrades BTK and CSK	5.754% and 14.0151% and 10.6773%	84.9586% and 87.9015% and 82.5703%	6.342% and 5.596% and 5.448%	98.0219% and 99.3574% and 101.289%	9.4506% and 5.015% and 9.59%	24.5688% and 19.6512% and 23.4022%	9.378% and 8.307% and 3.455%	87.0885% and 73.1635% and 80.126%	4.9185% and 3.718% and 8.9958%	43	1.5 × 10^−1	Kd [1]: 4200 nM; NanoBRET(%) [3, 13]: 95.2579% and 79.7394% and 93.8869%; NanoBRET(%) ([3]; Figure 3d, 4.00E-07 M, triplicates): 11.2221% and 10.3003% and 9.486%; NanoBRET(%) [3, 14]: 50.6504% and 43.13% and 35.3416%; IC50 ([3]; HEK-293 cells, BTK tracer 1.0 µM, experiment of Fig. 3f, read-out: BTK target engagement IC50): 33 nM; BTK target engagement ([3]; at 40 nM): 50%; BTK target engagement ([3]; at 200 nM): 90%; IC50 [3, 16]: 59 nM
CN1C(=O)CCC(N2C(=O)c3cccc(NCC(=O)NCCCN(C)C(C)(C)C=C(C#N)C(=O)N4CCCC(n5nc(-c6ccc(Oc7ccccc7)cc6)c6c(N)ncnc65)C4)c3C2=O)C1=O (stereo not drawn) [RC-1-Me]									no degradation is observed												
CN(CC=CC(=O)N1CCCC(n2nc(-c3ccc(Oc4ccccc4)cc3)c3c(N)ncnc32)C1)CCCNC(=O)CNc1cccc2c1C(=O)N(C1CCC(=O)NC1=O)C2=O (stereo not drawn) [IRC-1]	2824.6 and 2800.6 and 2664.6	1780.6 and 1887.6 and 2192.6	1780.6 and 1687.6 and 2021.6	1637.6 and 1410.6 and 1592.6	1188.6 and 1223.6 and 1189.6	912.6 and 875.6 and 944.6	936.6 and 917.6 and 925.6	specifically degraded	7	10.4557% and 9.057% and 9.053%	96.913% and 93.9025% and 100.93%	7.89% and 9.51% and 9.23%	94.8058% and 107.984% and 103.91%	11.1403% and 9.255% and 17.6554%	65.3589% and 58.7338% and 70.2106%				130	2.3 × 10^−2	Kd ([1]; read-out: Kd): 1500 nM; BTK engagement ([3]; at 400 nM): ~ 100%; intracellular accumulation of RC-1 relative to the compound [3]: 6 folds
CC(C)(C)C=C(C#N)C(=O)N1CCCC(n2nc(-c3ccc(Oc4ccccc4)cc3)c3c(N)ncnc32)C1 (stereo not drawn) [RC-Ctrl]																3.378% and 4.061% and 7.763%	68.6994% and 58.5265% and 79.8426%	7.973% and 4.415% and 10.8959%		1.5 × 10^−1	NanoBRET(%) [3, 13]: 72.0977% and 81.5236% and 73.9704%; NanoBRET(%) [3, 14]: 48.5638% and 40.5056% and 47.7559%; IC50 [3, 16]: 47 nM
CN(CCCNC(=O)CNc1cccc2c1C(=O)N(C1CCC(=O)NC1=O)C2=O)CCCC(=O)N1CCCC(n2nc(-c3ccc(Oc4ccccc4)cc3)c3c(N)ncnc32)C1 (stereo not drawn) [RNC-1]	2486.8 and 2886.8 and 2579.8	2242.8 and 2235.8 and 2132.8	2244.8 and 1962.8 and 1899.8	1778.8 and 1742.8 and 1730.8	1389.8 and 1303.8 and 1288.8	1034.8 and 1140.8 and 1274.8	1293.8 and 1294.8 and 1588.8	specifically degraded	7	19.811% and 15.5465% and 15.3581%	97.712% and 94.5586% and 94.4887%	33.1128% and 33.4469% and 31.5012%	87.6339% and 98.6398% and 114.053%	69.4314% and 86.9635% and 77.822%	100.734% and 107.362% and 104.968%				1270	3.7 × 10^−3	Kd ([1]; read-out: Kd): 1800 nM; intracellular accumulation of RC-1 relative to the compound [3]: 40 folds
